Laboratory results reported in PubChem BioAssay AID292 (DTP/NCI, 2004).
Values joined by “and” are separate entries in the source; they are usually repeats but may differ in a detail not shown here. Identical values can stand only once. Inconclusive results and toxic doses are left out.

System: B6C3F1 mice, ip Sarcoma M5076, median survival T/C
Assay: NCI In Vivo Anticancer Drug Screen. Data for tumor model Sarcoma M5076 (intraperitoneal) in B6C3F1 mice
Settings: endpoint: median survival time, higher = longer survival
Description: The antitumor activity of compounds was measured in mice bearing transplantable tumors. Survival or tumor size were measured and the results are expressed as the measurement made in the treated group (T) divided by the measurement made in the vehicle treated control group (C). The tumor model used in this assay is Sarcoma M5076 (intraperitoneal) in B6C3F1 mice

[1] = dose: 12.5 mg/kg/injection, schedule: Q04DX004 (ip), vehicle: Klucel (hydroxypropylcellulose) (HPC)
[2] = dose: 25.0 mg/kg/injection, schedule: Q04DX004 (ip), vehicle: Klucel (hydroxypropylcellulose) (HPC)
[3] = dose: 6.25 mg/kg/injection, schedule: Q04DX004 (ip), vehicle: saline with Tween-80
[4] = dose: 12.5 mg/kg/injection, schedule: Q04DX004 (ip), vehicle: saline with Tween-80
[5] = dose: 25.0 mg/kg/injection, schedule: Q04DX004 (ip), vehicle: saline with Tween-80
[6] = dose: 50.0 mg/kg/injection, schedule: Q04DX004 (ip), vehicle: saline with Tween-80
[7] = dose: 100.0 mg/kg/injection, schedule: Q04DX004 (ip), vehicle: saline with Tween-80
[8] = dose: 50.0 mg/kg/injection, schedule: Q04DX004 (ip), vehicle: Klucel (hydroxypropylcellulose) (HPC)
[9] = dose: 37.5 mg/kg/injection, schedule: Q04DX004 (ip), vehicle: saline with Tween-80
[10] = dose: 75.0 mg/kg/injection, schedule: Q04DX004 (ip), vehicle: saline with Tween-80
[11] = dose: 150.0 mg/kg/injection, schedule: Q04DX004 (ip), vehicle: saline with Tween-80
[12] = dose: 300.0 mg/kg/injection, schedule: Q04DX004 (ip), vehicle: saline with Tween-80

## COc1c(C=O)c2c(c(OC)c1OC)-c1ccc(OC)c(=O)cc1[C@@H](NC(C)=O)CC2
dose: 3.75 mg/kg/injection, schedule: Q04DX004 (ip), vehicle: Klucel (hydroxypropylcellulose) (HPC)
  T/C: 118 % of control
dose: 7.5 mg/kg/injection, schedule: Q04DX004 (ip), vehicle: Klucel (hydroxypropylcellulose) (HPC)
  T/C: 118 % of control

## Nc1c(/C=C/c2cc3cc(C4=NCCN4)ccc3o2)[nH]c2cc(C3=NCCN3)ccc12
dose: 6.25 mg/kg/injection, schedule: Q04DX004 (ip), vehicle: Klucel (hydroxypropylcellulose) (HPC)
  T/C: 107 % of control
[1]
  T/C: 106 % of control
[2]
  T/C: 104 % of control

## N#Cc1c(N)[nH]c2ccc(Sc3ccccc3)cc12
[3]
  T/C: 101 % of control
[4]
  T/C: 112 % of control
dose: 15.0 mg/kg/injection, schedule: Q04DX004 (ip), vehicle: saline with Tween-80
  T/C: 108 % of control
[5]
  T/C: 109 % of control
dose: 30.0 mg/kg/injection, schedule: Q04DX004 (ip), vehicle: saline with Tween-80
  T/C: 97 % of control
dose: 36.0 mg/kg/injection, schedule: Q04DX004 (ip), vehicle: saline with Tween-80
  T/C: 104 % of control
[6]
  T/C: 114 % of control
dose: 60.0 mg/kg/injection, schedule: Q04DX004 (ip), vehicle: saline with Tween-80
  T/C: 95 % of control and 104 % of control
[7]
  T/C: 116 % of control
dose: 120.0 mg/kg/injection, schedule: Q04DX004 (ip), vehicle: saline with Tween-80
  T/C: 110 % of control
dose: 240.0 mg/kg/injection, schedule: Q04DX004 (ip), vehicle: saline with Tween-80
  T/C: 113 % of control

## COc1cc2c(cc1OC)[C@@H]1C(=O)c3ccc4c(c3O[C@@H]1CO2)C[C@H](C(C)C)O4
[1]
  T/C: 104 % of control
[2]
  T/C: 104 % of control
[8]
  T/C: 104 % of control

## O=S1(=O)C(c2ccc(F)cc2)=C(O)c2cc3ccccc3nc21
dose: 17.19 mg/kg/injection, schedule: Q04DX004 (ip), vehicle: sodium bicarbonate
  T/C: 97 % of control
dose: 34.38 mg/kg/injection, schedule: Q04DX004 (ip), vehicle: sodium bicarbonate
  T/C: 93 % of control
dose: 68.75 mg/kg/injection, schedule: Q04DX004 (ip), vehicle: sodium bicarbonate
  T/C: 93 % of control

## CCC(/C=C/C1OC(=O)C=CC1C)=C\C(C)C/C=C/C(C)=C/C(C)C(=O)C(C)C(O)C(C)C/C(C)=C/C(=O)O (stereo unspecified)
dose: 25.0 micrograms/kg/injection, schedule: Q04DX004 (ip), vehicle: other
  T/C: 104 % of control
dose: 25.0 micrograms/kg/injection, schedule: Q04DX004 (ip), vehicle: saline + alcohol
  T/C: 162 % of control
dose: 25.0 micrograms/kg/injection, schedule: Q04DX004 (ip), vehicle: saline
  T/C: 110 % of control and 111 % of control
dose: 25.0 micrograms/kg/injection, schedule: Q04DX004 (iv), vehicle: saline
  T/C: 101 % of control
dose: 50.0 micrograms/kg/injection, schedule: Q04DX004 (ip), vehicle: other
  T/C: 114 % of control
dose: 50.0 micrograms/kg/injection, schedule: Q04DX004 (ip), vehicle: saline + alcohol
  T/C: 163 % of control and 175 % of control
dose: 50.0 micrograms/kg/injection, schedule: Q04DX004 (ip), vehicle: saline
  T/C: 109 % of control and 114 % of control
dose: 50.0 micrograms/kg/injection, schedule: Q04DX004 (iv), vehicle: saline
  T/C: 104 % of control
dose: 100.0 micrograms/kg/injection, schedule: Q04DX004 (ip), vehicle: other
  T/C: 121 % of control
dose: 100.0 micrograms/kg/injection, schedule: Q04DX004 (ip), vehicle: saline + alcohol
  T/C: 166 % of control and 188 % of control
dose: 100.0 micrograms/kg/injection, schedule: Q04DX004 (ip), vehicle: saline
  T/C: 124 % of control
dose: 100.0 micrograms/kg/injection, schedule: Q04DX004 (iv), vehicle: saline
  T/C: 110 % of control
dose: 100.0 micrograms/kg/injection, schedule: Q04DX004 (sc), vehicle: other
  T/C: 106 % of control
dose: 200.0 micrograms/kg/injection, schedule: Q04DX004 (ip), vehicle: other
  T/C: 121 % of control
dose: 200.0 micrograms/kg/injection, schedule: Q04DX004 (ip), vehicle: saline + alcohol
  T/C: 184 % of control and 195 % of control
dose: 200.0 micrograms/kg/injection, schedule: Q04DX004 (ip), vehicle: saline
  T/C: 124 % of control
dose: 200.0 micrograms/kg/injection, schedule: Q04DX004 (iv), vehicle: saline
  T/C: 102 % of control
dose: 200.0 micrograms/kg/injection, schedule: Q04DX004 (sc), vehicle: other
  T/C: 106 % of control
dose: 400.0 micrograms/kg/injection, schedule: Q04DX004 (ip), vehicle: other
  T/C: 152 % of control
dose: 400.0 micrograms/kg/injection, schedule: Q04DX004 (ip), vehicle: saline + alcohol
  T/C: 163 % of control and 184 % of control and 195 % of control
dose: 400.0 micrograms/kg/injection, schedule: Q04DX004 (iv), vehicle: saline
  T/C: 105 % of control
dose: 400.0 micrograms/kg/injection, schedule: Q04DX004 (sc), vehicle: other
  T/C: 106 % of control
dose: 800.0 micrograms/kg/injection, schedule: Q04DX004 (ip), vehicle: saline + alcohol
  T/C: 191 % of control and 217 % of control
dose: 800.0 micrograms/kg/injection, schedule: Q04DX004 (ip), vehicle: saline
  T/C: 152 % of control
dose: 800.0 micrograms/kg/injection, schedule: Q04DX004 (iv), vehicle: saline
  T/C: 116 % of control
dose: 800.0 micrograms/kg/injection, schedule: Q04DX004 (sc), vehicle: other
  T/C: 119 % of control

## CC(=O)/C(=C\c1ccc(/C=C(\C(C)=O)C(=O)CCN(C)C)cc1)C(=O)CCN(C)C
dose: 400.0 mg/kg/injection, schedule: Q04DX004 (ip), vehicle: saline with Tween-80
  T/C: 92 % of control

## COC(=O)c1cc(=O)c2c(ccc3oc(=O)ccc32)[nH]1
[4]
  T/C: 104 % of control
[5]
  T/C: 96 % of control
[6]
  T/C: 92 % of control
[7]
  T/C: 89 % of control
dose: 200.0 mg/kg/injection, schedule: Q04DX004 (ip), vehicle: saline with Tween-80
  T/C: 89 % of control

## CC1CC(Nc2ccc(NC3=CC(=O)OC(C)C3)cc2)=CC(=O)O1 (stereo unspecified)
[9]
  T/C: 99 % of control
[10]
  T/C: 97 % of control
[11]
  T/C: 94 % of control
[12]
  T/C: 90 % of control

## COc1cc2c(c3c1c(=O)c1cccc(F)c1n3C)C=CC(C)(C)O2
[8]
  T/C: 112 % of control
dose: 100.0 mg/kg/injection, schedule: Q04DX004 (ip), vehicle: Klucel (hydroxypropylcellulose) (HPC)
  T/C: 120 % of control

## Cn1nnc2c(C(N)=O)ncn2c1=O
dose: 100.0 mg/kg/injection, schedule: Q04DX004 (ip), vehicle: saline
  T/C: 156 % of control
dose: 200.0 mg/kg/injection, schedule: Q04DX004 (ip), vehicle: saline
  T/C: 170 % of control

## c1ccc2c(c1)-c1ccccc1C1NC21 (stereo unspecified)
dose: 18.75 mg/kg/injection, schedule: Q04DX004 (ip), vehicle: saline with Tween-80
  T/C: 93 % of control
[9]
  T/C: 98 % of control
[10]
  T/C: 94 % of control
[11]
  T/C: 96 % of control
[12]
  T/C: 102 % of control

## Cc1ccc(C(=O)[O][Hg][CH2]C2COC([CH2][Hg][O]C(=O)c3ccc(C)cc3)CO2)cc1 (stereo unspecified)
[3]
  T/C: 99 % of control
[4]
  T/C: 88 % of control
[5]
  T/C: 88 % of control

## CC(C)NCC(O)CC(c1ccccc1)c1ccccc1 (stereo unspecified)
[4]
  T/C: 95 % of control
[5]
  T/C: 101 % of control
[6]
  T/C: 98 % of control
[7]
  T/C: 91 % of control

## CO[C@@]12[C@@H]3N[C@@H]3CN1C1=C(C(=O)C(N3CCCC3)=C(C)C1=O)[C@@H]2COC(N)=O
[3]
  T/C: 269 % of control
[4]
  T/C: 183 % of control

## COc1ccc(-c2nnc3cc(C)n4nnnc4n23)cc1OC
dose: 18.75 mg/kg/injection, schedule: Q04DX004 (ip), vehicle: Klucel (hydroxypropylcellulose) (HPC)
  T/C: 99 % of control
dose: 37.5 mg/kg/injection, schedule: Q04DX004 (ip), vehicle: Klucel (hydroxypropylcellulose) (HPC)
  T/C: 94 % of control
dose: 75.0 mg/kg/injection, schedule: Q04DX004 (ip), vehicle: Klucel (hydroxypropylcellulose) (HPC)
  T/C: 98 % of control
dose: 150.0 mg/kg/injection, schedule: Q04DX004 (ip), vehicle: Klucel (hydroxypropylcellulose) (HPC)
  T/C: 99 % of control
dose: 300.0 mg/kg/injection, schedule: Q04DX004 (ip), vehicle: Klucel (hydroxypropylcellulose) (HPC)
  T/C: 91 % of control

## O=C1C(=O)N(c2ccccc2Cl)C(=O)N1Cc1ccccc1
dose: 43.75 mg/kg/injection, schedule: Q04DX004 (ip), vehicle: Klucel (hydroxypropylcellulose) (HPC)
  T/C: 102 % of control
dose: 87.5 mg/kg/injection, schedule: Q04DX004 (ip), vehicle: Klucel (hydroxypropylcellulose) (HPC)
  T/C: 98 % of control
dose: 175.0 mg/kg/injection, schedule: Q04DX004 (ip), vehicle: Klucel (hydroxypropylcellulose) (HPC)
  T/C: 109 % of control
dose: 350.0 mg/kg/injection, schedule: Q04DX004 (ip), vehicle: Klucel (hydroxypropylcellulose) (HPC)
  T/C: 94 % of control
dose: 700.0 mg/kg/injection, schedule: Q04DX004 (ip), vehicle: Klucel (hydroxypropylcellulose) (HPC)
  T/C: 93 % of control
